Assay [1] has as its system onset of bronchitis in infants. Kind of assay: Logistic regression: breast milk carbohydrate component concentrations vs onset of bronchitis in infants during first year of life (153 samples). In kind it is in vivo, human. Conditions: for Odds ratio: concentration in breast milk vs onset of infant bronchitis within one year, adjusted for sex, siblings, method of delivery, birth weight; for Relationship between concentration and the onset of bronchitis (in words) / Regression coefficient: logistic regression; for Regression coefficient: concentration in breast milk vs onset of infant bronchitis. How it is done:
Various carbohydrate components were measured for 153 breast milk samples, analyzing a relationship with a presence or absence of the onset of bronchitis in infants during the first year of life using a logistic regression.
(§1) Bean Stalk Snow Co., Ltd. Conducted a prospective cohort study (UMIN ID 000015494) from 2014 to 2019 for investigating the relationship between the breast milk components of Japanese and a health status of mothers and children in Japan. In the study, breast milk samples collected from 1,210 mothers and questionnaire results of investigating the health status of mothers and children were used in the study. In addition, 200 samples were randomly selected from the 1,210 samples. The breast milk collected between 1 and 2 months after childbirth was used as the breast milk samples for analysis. Parents filled out questionnaires investigating the health status of their infants six times in total, every two months for one year after birth, and the results were collected. From the questionnaire results, the results were compiled of whether or not the infants were diagnosed with the bronchitis by a doctor within one year after the childbirth. If a description of a presence or absence of the onset of bronchitis was unclear, they were excluded from the study.
(§2) As a result, in the questionnaires conducted six times in total in a year, for 153 samples, questionnaires were answered correctly about whether the infants had been diagnosed with the bronchitis, and the samples became subjects to be analyzed in the study. Of the 153 samples, 18 samples were from infants diagnosed with the bronchitis within one year of birth.
For the 153 breast milk samples, the relationship between the concentrations of N-acetylneuraminic acid, the oligosaccharide, the N-linked glycan, the O-linked glycan, the disialo N-linked glycan A, and the disialo N-linked glycan B and the onset of infant bronchitis was analyzed using the logistic regression. Sex of the infant, a presence or absence of siblings, the method of delivery (natural birth, cesarean section), and a birth weight were used as adjustment factors.

The test system of assay [2] is onset of bronchitis in infants. The assay can be described thus: Two-group comparison of breast milk concentrations (infants ever vs never contracted bronchitis) and Fisher's exact test at a cut-off concentration. It is filed as in vivo, human. The conditions noted are these: for Concentration in the breast milk that reduces the risk of contracting the bronchitis: cut-off of Fisher's exact test; for Concentration in breast milk consumed by infants who had never contracted bronchitis versus infants who had ever contracted bronchitis: two groups, FIG. 1-5.
Text: as §1, §2
The breast milk samples were divided into two groups, based on whether or not the infants had ever contracted the bronchitis, comparing the total N-acetylneuraminic acids concentrations in the breast milk. […] A distribution range of the total N-acetylneuraminic acids concentrations in the breast milk consumed by the infants who had never contracted the bronchitis was 181-977 mg/L, with a median of 395 mg/L (Table 2). The distribution of the total N-acetylneuraminic acids concentrations was, different from a normal distribution, a distribution spreading out its tail towards its higher end of concentrations. Such a distribution is seen in the distribution of heights and weights of the infants, and the 3rd to 97th percentile of the overall distribution is used as standards when creating growth curves for infants (Infant Physical Development Survey Report 2000). Based on this, the 3rd to 97th percentile was used as a standard range of the total N-acetylneuraminic acids concentrations in the breast milk. A minimum value of the total N-acetylneuraminic acid concentration in the breast milk consumed by the infants who had never contracted the bronchitis was 221 mg/L corresponding to the 3rd percentile of the distribution.

As for `CC(=O)N[C@H]1[C@H]([C@H](O)[C@H](O)CO)O[C@@](O[C@H]2[C@@H](O)[C@@H](CO)O[C@@H](O[C@H]3[C@H](O)[C@@H](O)C(O)O[C@@H]3CO)[C@@H]2O)(C(=O)O)C[C@@H]1O` (some centres unmarked) [3′-SL, 3′-sialyllactose, reference compound], in assay [1], the Odds ratio stood at 0.53; the “Relationship between concentration and the onset of bronchitis (in words)” value is given as “not observed”; the Regression coefficient is listed as −0.626.

With `CC(=O)N[C@H]1[C@H]([C@H](O)[C@H](O)CO)O[C@@](OC[C@H]2O[C@@H](O[C@H]3[C@H](O)[C@@H](O)[C@H](O)O[C@@H]3CO)[C@H](O)[C@@H](O)[C@H]2O)(C(=O)O)C[C@@H]1O` [6′-SL, 6′-sialyllactose], in assay [2], the “Concentration in the breast milk that reduces the risk of contracting the bronchitis” value is listed as not below 135 mg/L and the “Concentration in breast milk consumed by infants who had never contracted bronchitis versus infants who had ever contracted bronchitis” value is on record as “significantly higher”.

For `CC(=O)N[C@H]1[C@H]([C@H](O)[C@H](O)CO)OC(O)(C(=O)O)C[C@@H]1O` (some centres unmarked) [Total N-acetylneuraminic acid, N-acetylneuraminic acid], in assay [2], the “Concentration in the breast milk that reduces the risk of contracting the bronchitis” value is listed as not below 246 mg/L and the “Concentration in breast milk consumed by infants who had never contracted bronchitis versus infants who had ever contracted bronchitis” value is on record as “significantly higher”. Further, in assay [1], the Odds ratio came to 0.098; the “Relationship between concentration and the onset of bronchitis (in words)” value is on record as “statistically significant relationship”; the Regression coefficient is recorded as −2.32.

Consider “Neu5Acα2-6Galβ1-4GlcNAcβ1-2Manα1-3 (Neu5Acα2-6Galβ1-4GlcNAcβ1-2Manα1-6) Manβ1-4GlcNAcβ1-4 (Fucα1-6) GlcNAc [Disialo N-linked glycan B]”, for which, in assay [2], the “Concentration in the breast milk that reduces the risk of contracting the bronchitis” value is not below 0.245 µmol/L and the “Concentration in breast milk consumed by infants who had never contracted bronchitis versus infants who had ever contracted bronchitis” value is “significantly higher”. Moreover, in assay [1], the Odds ratio is 0.24 and the Regression coefficient was −1.407. For the same compound, the Regression coefficient entry in assay [1] (listed as disialo N-linked glycan B) is on record as “negative”.

Turning to “Neu5Acα2-6Galβ1-4GlcNAcβ1-2Manαl-3 (Neu5Acα2-6Galβ1-4GlcNAcβ1-2Manα1-6) Manβ1-4GlcNAcβ1-4GlcNAc [Disialo N-linked glycan A]”, in assay [2], the “Concentration in the breast milk that reduces the risk of contracting the bronchitis” value was not below 0.313 µmol/L and the “Concentration in breast milk consumed by infants who had never contracted bronchitis versus infants who had ever contracted bronchitis” value is “significantly higher”. Besides, in assay [1], the Odds ratio is on record as 0.15 and the Regression coefficient is given as −1.918. In addition, the Regression coefficient result in assay [1] (listed as disialo N-linked glycan A) is “negative”.

The values are drawn from patent US20250360152A1, “NUTRITIONAL COMPOSITION FOR PREVENTING BRONCHITIS” (MEGMILK SNOW BRAND Co., Ltd., priority 2022, published 2025).
